Data: ChEMBL document CHEMBL1151291, “Antiviral activity of lignans” (J Nat Prod, 1998)
≈ marks a conversion by molar mass, not a printed value.

How the values were obtained:
[1] = test system: Human immunodeficiency virus; assay: Antiviral activity against HIV; assay type: functional, organism-based; conditions: Human immunodeficiency virus 1
[2] = Therapeutic index, ratio of MTC for human primary amnion cells to lowest drug level causing inhibition of HSV1; conditions: read-out: TI
Human alphaherpesvirus 1 [3] = assay: Antiviral activity against HSV1 infected in human primary amnion cells assessed as inhibition of virus-induced pathogenic effect; assay type: functional
[4] = Cytotoxicity against human primary amnion cells assessed as morphological changes by microscopic examination; assay type: functional
[5] = test system: Vesicular stomatitis virus; assay: Antiviral activity against VSV infected in BHK cells assessed as inhibition of plaque formation; assay type: functional, organism-based
Human alphaherpesvirus 1 [6] = assay: Antiviral activity against HSV1 infected in monkey CV-1 cells assessed as inhibition of plaque formation; assay type: functional, organism-based; conditions: Human alphaherpesvirus 1, CV-1
MT4 = assay: Cytotoxicity against human MT4 cells; assay type: functional; conditions: read-out: CD50 (the source's name)
[7] = test system: Human immunodeficiency virus 1; assay: Antiviral activity against HIV1 infected in human MT4 cells; assay type: functional, organism-based; conditions: Human immunodeficiency virus 1, MT4
[8] = test system: Human immunodeficiency virus; assay: Antiviral activity against cross-resistant HIV mutant; assay type: functional; conditions: Human immunodeficiency virus 1; read-out: ED50 (the source's name)
[9] = Inhibition of human DNA polymerase alpha
[10] = test system: Vesicular stomatitis virus; assay: Antiviral activity against VSV infected in rabbit RL-33 cells; assay type: functional
[11] = Cytotoxicity against rabbit RL33 cells; assay type: cell-based, Oryctolagus cuniculus
[12] = Therapeutic index, ratio of inhibition of human H9 cells to EC50 for HIV1; assay type: cell-based; conditions: read-out: TI
[13] = test system: Human immunodeficiency virus 1; assay: Antiviral activity against HIV1 infected in human H9 cells assessed inhibition of viral replication; assay type: functional, organism-based; conditions: Human immunodeficiency virus 1, H9
[14] = test system: Human immunodeficiency virus; assay: Antiviral activity against HIV assessed as reduction of viral protein production at 0.52 uM; assay type: functional; set-up: scale not given: the % may be the effect or the level left
[15] = test system: Human immunodeficiency virus; assay: Antiviral activity against HIV assessed as reduction of viral protein production at 0.27 uM; assay type: functional; set-up: scale not given: the % may be the effect or the level left
Murid betaherpesvirus 1 [16] = assay: Antiviral activity against Murine cytomegalovirus in mouse 3T3-L1 cells at 263 nM; assay type: functional; conditions: Murid betaherpesvirus 1, 3T3-L1
Sindbis virus [17] = assay: Antiviral activity against Sindbis virus in mouse 3T3-L1 cells at 273 nM; assay type: functional
Murid betaherpesvirus 1 [18] = assay: Antiviral activity against Murine cytomegalovirus in mouse 3T3-L1 cells at 241 nM; assay type: functional; conditions: Murid betaherpesvirus 1, 3T3-L1
Sindbis virus [19] = assay: Antiviral activity against Sindbis virus in mouse 3T3-L1 cells at 241 nM; assay type: functional
Murid betaherpesvirus 1 [20] = assay: Antiviral activity against Murine cytomegalovirus in mouse 3T3-L1 cells at 250 nM; assay type: functional; conditions: Murid betaherpesvirus 1, 3T3-L1
Sindbis virus [21] = assay: Antiviral activity against Sindbis virus in mouse 3T3-L1 cells at 250 nM; assay type: functional

## COc1cc2c(c(OC)c1OC)-c1c(cc3c(c1OC)OCO3)[C@H](OC(=O)c1ccccc1)[C@@](C)(O)[C@@H](C)C2 [GOMISIN G]
[1]
  IC50: 11 nM

## COc1cc([C@@H]2c3cc4c(cc3C[C@H]3CSC(=O)[C@@H]32)OCO4)cc(OC)c1OC [DEOXYPODOPHYLLOTOXIN CYCLIC SULFIDE]
[2]
  selectivity ratio: 3
Human alphaherpesvirus 1 [3]
  Activity: 12 µM
[4]
  Activity: 37 µM

## COc1cc([C@@H]2c3cc4c(cc3[C@@H](OC(C)=O)[C@H]3CSC(=O)[C@H]23)OCO4)cc(OC)c1OC [EPIPODOPHYLLOTOXIN ACETATE]
[5]
  IC50: 220 nM
Human alphaherpesvirus 1 [6]
  IC50: 440 nM

## COc1cc([C@@H]2c3cc4c(cc3C[C@H]3CC(=O)C[C@@H]32)OCO4)cc(OC)c1OC [DEOXYPODOPHYLLOTOXIN CYCLOPENTANONE]
[2]
  selectivity ratio: 2.5
Human alphaherpesvirus 1 [3]
  Activity: 49 µM
[4]
  Activity: 122 µM

## COc1c2c(cc3c1[C@H](c1ccc(OC(=O)c4ccccc4)c(O)c1)[C@H]1C(=O)OC[C@@H]1C3)OCO2
MT4
  CC50: > 840 µM
[7]
  EC50: 5.22 µM

## COc1c(O)c(Br)c2c(c1OC)-c1c(c(Br)c(O)c(OC)c1OC)C[C@H](C)[C@H](C)C2
[8]
  EC50: 100 nM

## COc1cc([C@@H]2c3cc4c(cc3C=C3COC(=O)[C@H]32)OCO4)cc(OC)c1OC
[5]
  IC50: 250 nM
Human alphaherpesvirus 1 [6]
  IC50: 250 nM

## COc1cc([C@@H]2c3cc4c(cc3[C@@H](OC)[C@H]3COC(=O)[C@@H]23)OCO4)cc(OC)c1OC
[5]
  IC50: 2300 nM
Human alphaherpesvirus 1 [6]
  IC50: 900 nM

## COc1cc([C@@H]2c3cc4c(cc3C[C@H]3COC(=O)[C@@H]32)OCO4)cc(OC)c1OC [DESOXYPODOPHYLLOTOXIN]
[5]
  IC50: < 25 nM
Human alphaherpesvirus 1 [6]
  IC50: 25 nM
[2]
  selectivity ratio: 667
Human alphaherpesvirus 1 [3]
  Activity: 0.038 µM
[4]
  Activity: >25 µM

## COc1cc2cc3c(c(-c4ccc5c(c4)OCO5)c2cc1OC)COC3=O [RETROJUSTICIDIN B]
[9]
  IC50: 5.5 µM

## COc1cc([C@H]2c3c(cc4c(c3OC)OCO4)C[C@H]3CSC[C@@H]32)cc(OC)c1OC
MT4
  CC50: 163 µM
[7]
  EC50: 5.1 µM

## COc1c2c(cc3c1-c1c(cc4c(c1OC)OCO4)C[C@H](C)[C@H](C)C3)OCO2 [SCHISANDRIN C]
[1]
  IC50: 3100 nM

## COc1cc([C@@H]2c3cc4c(cc3C[C@H]3COC(=O)[C@H]32)OCO4)cc(OC)c1OC [DEOXYPICROPODOPHYLLIN]
[5]
  IC50: 2000 nM
Human alphaherpesvirus 1 [6]
  IC50: 2000 nM

## COc1cc2c(c(OC)c1OC)-c1c(cc3c(c1OC)OCO3)C[C@@H](C)[C@@H](C)C2 [KADSURANIN]
[1]
  IC50: 2000 nM

## COc1cc([C@@H]2c3cc4c(c(O[C@@H]5O[C@H](CO)[C@@H](O)[C@H](O)[C@H]5O)c3C[C@H]3COC(=O)[C@@H]32)OCO4)cc(OC)c1OC
[2]
  selectivity ratio: 3
Human alphaherpesvirus 1 [3]
  Activity: 17 µM
[4]
  Activity: 52 µM

## COC(=O)[C@@H]1C(CO)=Cc2cc3c(cc2[C@H]1c1cc(OC)c(OC)c(OC)c1)OCO3
[5]
  IC50: 460 nM
Human alphaherpesvirus 1 [6]
  IC50: 460 nM

## COCc1cc2cc(OC)c(OC)cc2c(-c2ccc3c(c2)OCO3)c1C=O [PHYLLAMYRICIN B]
[9]
  IC50: 3.5 µM

## COc1cc([C@@H]2c3cc4c(cc3[C@@H](O[C@@H]3O[C@@H]5CO[C@@H](C)O[C@H]5[C@H](O)[C@H]3O)[C@H]3COC(=O)[C@H]23)OCO4)cc(OC)c1O [ETOPOSIDE]
[2]
  selectivity ratio: 1.2
Human alphaherpesvirus 1 [3]
  Activity: 85 µM
[4]
  Activity: 100 µM

## COc1cc([C@@H]2c3cc4c(c(O)c3C[C@H]3COC(=O)[C@@H]32)OCO4)cc(OC)c1OC [BETA-PELTATIN A]
[2]
  selectivity ratio: 333
Human alphaherpesvirus 1 [3]
  Activity: 0.36 µM
[4]
  Activity: 120 µM

## COc1ccc([C@H]2c3c(cc4c(c3OC)OCO4)C[C@H]3CSC[C@@H]32)cc1OC
MT4
  CC50: > 840 µM
[7]
  EC50: 3.3 µM

## COc1cc([C@@H]2c3cc4c(cc3[C@H](O)[C@H]3COC(=O)[C@@H]23)OCO4)cc(OC)c1OC [AXL-1717]
[2]
  selectivity ratio: 75
Human alphaherpesvirus 1 [3]
  Activity: 1.9 µM
[4]
  Activity: 140 µM

## COc1cc([C@@H]2c3cc4c(c(OC)c3C[C@H]3COC(=O)[C@@H]32)OCO4)cc(OC)c1OC
[5]
  IC50: 23 nM
Human alphaherpesvirus 1 [6]
  IC50: 23 nM

## COc1cc([C@@H]2c3cc4c(cc3[C@H](O)[C@H]3COC(=O)[C@H]23)OCO4)cc(OC)c1O
[5]
  IC50: 250 nM
Human alphaherpesvirus 1 [6]
  IC50: 100 nM
[2]
  selectivity ratio: 250
Human alphaherpesvirus 1 [3]
  Activity: 0.5 µM
[4]
  Activity: >125 µM

## COc1cc2c(OC)c3c(c(-c4ccc5c(c4)OCO5)c2cc1OC)C(=O)OC3 [JUSTICIDIN A]
[10]
  MIC: 0.65 µM (≈ 0.256 µg/mL)
[11]
  Activity: 166 µM

## COc1ccc(C[C@H]2COC(=O)[C@@H]2Cc2ccc(O)c(O)c2)cc1OC
[12]
  selectivity ratio: 9
[13]
  EC50: 420 nM

## COc1cc([C@@H]2c3cc4c(cc3[C@@H](OC)[C@H]3COC(=O)[C@H]23)OCO4)cc(OC)c1OC
[5]
  IC50: 900 nM
Human alphaherpesvirus 1 [6]
  IC50: 900 nM

## COc1cc(C[C@H]2C(=O)OC[C@@H]2Cc2ccc(OC)c(OC)c2)ccc1O [ARCTIGENIN]
[12]
  selectivity ratio: 9
[13]
  EC50: 420 nM
[14]
  Activity: 60%
[15]
  Activity: 60%

## COc1cc2c(O)c3c(c(-c4ccc5c(c4)OCO5)c2cc1OC)C(=O)OC3 [DIPHYLLIN]
[10]
  MIC: 0.16 µM (≈ 0.0609 µg/mL)
Murid betaherpesvirus 1 [16]
  inhibition at 0.263 µM: 11%
[11]
  Activity: 85 µM
Sindbis virus [17]
  inhibition at 0.273 µM: 18%

## COc1cc([C@@H]2c3cc4c(cc3[C@H](O)[C@H]3COC(=O)[C@H]23)OCO4)cc(OC)c1OC [PODOFILOX]
[5]
  IC50: 100 nM
Murid betaherpesvirus 1 [18]
  inhibition at 0.241 µM: 74%
Human alphaherpesvirus 1 [6]
  IC50: 50 nM
[2]
  selectivity ratio: 6000
Human alphaherpesvirus 1 [3]
  Activity: 0.024 µM
[4]
  Activity: 140 µM
Sindbis virus [19]
  inhibition at 0.241 µM: 3%

## COc1cc([C@H]2c3c(cc(OC)c(OC)c3OC)C[C@H]3CSC[C@@H]32)cc(OC)c1OC
MT4
  CC50: 58 µM
[7]
  EC50: 0.8 µM

## COc1cc([C@@H]2c3cc4c(cc3[C@@H](O)[C@H]3COC(=O)[C@H]23)OCO4)cc(OC)c1OC [EPIPODOPHYLLOTOXIN]
[2]
  selectivity ratio: 15
Human alphaherpesvirus 1 [3]
  Activity: 1.6 µM
[4]
  Activity: 24 µM

## COc1cc([C@@H]2c3cc4c(cc3[C@@H](O)[C@H]3COC(=O)[C@H]23)OCO4)cc(OC)c1O [4'-DEMETHYLEPIPODOPHYLLOTOXIN]
[2]
  selectivity ratio: 1
Human alphaherpesvirus 1 [3]
  Activity: 13 µM
[4]
  Activity: 13 µM

## COc1cc([C@@H]2c3cc4c(cc3[C@H](O)[C@H]3COC[C@H]23)OCO4)cc(OC)c1OC [ANHYDROPODOPHYLLOL]
[2]
  selectivity ratio: 800
Human alphaherpesvirus 1 [3]
  Activity: 0.25 µM
[4]
  Activity: >200 µM

## COc1cc([C@H]2c3c(cc(OC)c(OC)c3OC)C[C@@H](C)[C@@H]2C)cc(OC)c1OC
MT4
  CC50: 34 µM
[7]
  EC50: 3.2 µM

## COc1cc(C[C@@]2(O)C(=O)OC[C@@H]2Cc2ccc(OC)c(OC)c2)ccc1O
[14]
  Activity: 60%
[15]
  Activity: 60%

## COc1cc([C@@H]2c3cc4c(c(O)c3C[C@H]3COC(=O)[C@@H]32)OCO4)cc(OC)c1O
Murid betaherpesvirus 1 [20]
  inhibition at 0.25 µM: 85%
[2]
  selectivity ratio: 4000
Human alphaherpesvirus 1 [3]
  Activity: 0.05 µM
[4]
  Activity: 200 µM
Sindbis virus [21]
  inhibition at 0.25 µM: 6%

## COc1cc([C@@H]2c3cc4c(cc3[C@H](OC)[C@H]3COC(=O)[C@H]23)OCO4)cc(OC)c1OC
[5]
  IC50: 930 nM
Human alphaherpesvirus 1 [6]
  IC50: 460 nM

## COc1c(O)c(Cl)c2c(c1OC)-c1c(c(Cl)c(O)c(OC)c1OC)C[C@H](C)[C@H](C)C2
[8]
  EC50: 100 nM
